Measured values as given in ChEMBL document CHEMBL1150721, “Hepatoprotective activity of polyphenolic compounds from Cynara scolymus against CCl4 toxicity in isolated rat hepatocytes” (1987).

Columns and labels:
Hepatocyte [1] = experiment: Hepatoprotective activity against carbon tetrachloride-induced hepatotoxicity in fasted Sprague-Dawley rat hepatocytes assessed as serum glutamic oxaloacetic transaminase release at 0.01 mg/ml administered before 10 mins of carbon tetrachloride challenge measured after 30 mins; type: functional
Hepatocyte [2] = experiment: Hepatoprotective activity against carbon tetrachloride-induced hepatotoxicity in fasted Sprague-Dawley rat hepatocytes assessed as serum glutamic oxaloacetic transaminase release at 0.1 mg/ml administered before 10 mins of carbon tetrachloride challenge measured after 30 mins; type: functional
Hepatocyte [3] = experiment: Hepatoprotective activity against carbon tetrachloride-induced hepatotoxicity in fasted Sprague-Dawley rat hepatocytes assessed as serum glutamic oxaloacetic transaminase release at 1 mg/ml administered before 10 mins of carbon tetrachloride challenge measured after 30 mins; type: functional
Hepatocyte [4] = experiment: Hepatoprotective activity against carbon tetrachloride-induced hepatotoxicity in fasted Sprague-Dawley rat hepatocytes assessed as serum glutamic oxaloacetic transaminase release at 3 mg/ml administered before 10 mins of carbon tetrachloride challenge measured after 30 mins; type: functional
Hepatocyte [5] = experiment: Hepatoprotective activity against carbon tetrachloride-induced hepatotoxicity in fasted Sprague-Dawley rat hepatocytes assessed as serum glutamic pyruvate transaminase release at 0.01 mg/ml administered before 10 mins of carbon tetrachloride challenge measured after 30 mins; type: functional
Hepatocyte [6] = experiment: Hepatoprotective activity against carbon tetrachloride-induced hepatotoxicity in fasted Sprague-Dawley rat hepatocytes assessed as serum glutamic pyruvate transaminase release at 0.1 mg/ml administered before 10 mins of carbon tetrachloride challenge measured after 30 mins; type: functional
Hepatocyte [7] = experiment: Hepatoprotective activity against carbon tetrachloride-induced hepatotoxicity in fasted Sprague-Dawley rat hepatocytes assessed as serum glutamate pyruvate transaminase release at 1 mg/ml administered before 10 mins of carbon tetrachloride challenge measured after 30 mins; type: functional
Hepatocyte [8] = experiment: Hepatoprotective activity against carbon tetrachloride-induced hepatotoxicity in fasted Sprague-Dawley rat hepatocytes assessed as serum glutamic pyruvate transaminase release at 3 mg/ml administered before 10 mins of carbon tetrachloride challenge measured after 30 mins; type: functional
[9] = Effect on glutamate oxaloacetic transaminase activity at 1 mg/ml
[10] = biological target: T1, Alanine aminotransferase 1 (Homo sapiens) (UniProt P24298); experiment: Effect on glutamic pyruvate transaminase activity at 1 mg/ml
T1 sequence (whole entry): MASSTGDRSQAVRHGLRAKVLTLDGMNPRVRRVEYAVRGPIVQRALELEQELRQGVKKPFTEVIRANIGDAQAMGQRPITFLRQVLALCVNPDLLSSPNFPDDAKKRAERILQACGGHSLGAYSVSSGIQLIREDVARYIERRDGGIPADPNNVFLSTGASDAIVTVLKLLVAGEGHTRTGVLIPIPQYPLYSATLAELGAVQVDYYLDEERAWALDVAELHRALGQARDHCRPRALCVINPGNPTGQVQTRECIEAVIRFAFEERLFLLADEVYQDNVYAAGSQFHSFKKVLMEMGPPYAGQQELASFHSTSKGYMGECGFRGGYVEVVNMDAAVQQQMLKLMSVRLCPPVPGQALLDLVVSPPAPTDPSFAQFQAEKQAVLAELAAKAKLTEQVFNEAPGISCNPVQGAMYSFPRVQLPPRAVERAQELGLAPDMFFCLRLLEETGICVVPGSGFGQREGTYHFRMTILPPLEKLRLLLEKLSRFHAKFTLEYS

[11] = Effect on glutamate oxaloacetic transaminase activity at 0.1 mg/ml
[12] = biological target: T1, Alanine aminotransferase 1 (Homo sapiens); experiment: Effect on glutamic pyruvate transaminase activity at 0.1 mg/ml
[13] = Effect on glutamate oxaloacetic transaminase activity at 3 mg/ml
[14] = biological target: T1, Alanine aminotransferase 1 (Homo sapiens); experiment: Effect on glutamic pyruvate transaminase activity at 3 mg/ml

O=C(O)/C=C/c1ccc(O)c(O)c1 [CAFFEIC ACID]
Activity (Hepatocyte [1]): 21% | Activity (Hepatocyte [2]): 19.9% | Activity (Hepatocyte [3]): 18.6% | Activity (Hepatocyte [4]): 22.1% | Activity (Hepatocyte [5]): 19% | Activity (Hepatocyte [6]): 17.5% | Activity (Hepatocyte [7]): 13.4% | Activity (Hepatocyte [8]): 16.7% | Activity [9]: 123 U/L | Activity [10]: 97 U/L

O=C(/C=C/c1ccc(O)c(O)c1)O[C@@H]1C[C@](O)(C(=O)O)C[C@@H](O)[C@H]1O [CHLOROGENIC ACID]
Activity (Hepatocyte [1]): 19.5% | Activity (Hepatocyte [2]): 19.4% | Activity (Hepatocyte [3]): 20.6% | Activity (Hepatocyte [4]): 20.6% | Activity (Hepatocyte [5]): 16.7% | Activity (Hepatocyte [6]): 15.3% | Activity (Hepatocyte [7]): 17.7% | Activity (Hepatocyte [8]): 15.9%

Oc1cc(O)c2c(c1)O[C@H](c1ccc(O)c(O)c1)[C@@H](O)C2 [CIANIDANOL]
Activity (Hepatocyte [1]): 16.8% | Activity (Hepatocyte [2]): 18.3% | Activity (Hepatocyte [3]): 21% | Activity (Hepatocyte [4]): 22.4% | Activity (Hepatocyte [5]): 13.5% | Activity (Hepatocyte [6]): 14.3% | Activity (Hepatocyte [7]): 17.3% | Activity (Hepatocyte [8]): 20.1% | Activity [11]: 127 U/L | Activity [12]: 103 U/L

O=C(/C=C/c1ccc(O)c(O)c1)O[C@@H]1C[C@@](OC(=O)/C=C/c2ccc(O)c(O)c2)(C(=O)O)C[C@@H](O)[C@@H]1O [CYNARIN]
Activity (Hepatocyte [1]): 17.6% | Activity (Hepatocyte [2]): 17.9% | Activity (Hepatocyte [3]): 17.6% | Activity (Hepatocyte [4]): 16.5% | Activity (Hepatocyte [5]): 16.3% | Activity (Hepatocyte [6]): 16.8% | Activity (Hepatocyte [7]): 13.9% | Activity (Hepatocyte [8]): 13.3% | Activity [9]: 126 U/L | Activity [13]: 123 U/L | Activity [10]: 103 U/L | Activity [14]: 110 U/L

O=c1cc(-c2ccc(O)c(O)c2)oc2cc(O[C@@H]3O[C@H](CO)[C@@H](O)[C@H](O)[C@H]3O)cc(O)c12 [GALUTEOLIN]
Activity (Hepatocyte [1]): 21.9% | Activity (Hepatocyte [2]): 20.4% | Activity (Hepatocyte [3]): 21.1% | Activity (Hepatocyte [4]): 22.8% | Activity (Hepatocyte [5]): 15.9% | Activity (Hepatocyte [6]): 14.9% | Activity (Hepatocyte [7]): 15.9% | Activity (Hepatocyte [8]): 20.9% | Activity [9]: 139 U/L | Activity [10]: 111 U/L

O=C(O)[C@]1(O)C[C@@H](O)[C@@H](O)[C@H](O)C1 [QUINIC ACID]
Activity (Hepatocyte [1]): 18.4% | Activity (Hepatocyte [2]): 21.9% | Activity (Hepatocyte [3]): 21.2% | Activity (Hepatocyte [4]): 21.2% | Activity (Hepatocyte [5]): 15.5% | Activity (Hepatocyte [6]): 18.1% | Activity (Hepatocyte [7]): 17.4% | Activity (Hepatocyte [8]): 17%
